Tests used:
[1] = molecular target: Sialic acid-binding Ig-like lectin 9 (Homo sapiens, UniProt Q9Y336); assay: Hs-Siglec9 ALPHAscreen SOP 20170721
[2] = microbe, parasite or virus in culture; details: Mycobacterium tuberculosis, 96 h, read-out: pIC50 (converted)
[3] = In vitro enzyme assay to detect hydrolysis of chlorophenol red-beta-D-[…] directly proportional to the number of Toxoplasma stably expressing beta-galactosidase; assay type: functional, organism-based, Toxoplasma gondii; details: for IC50: Toxoplasma gondii
ClpP1P2 = ClpP1P2 (Mycobacterium tuberculosis (strain ATCC 25618 / H37Rv), UniProt P9WPC3+P9WPC5); assay: in vitro assay to detect presence of AMC directly proportional to the activity of ClpP1P2. GHDDI collaboration.; assay type: functional
[4] = microbe, parasite or virus in culture; details: Mycobacterium tuberculosis, 72 h, read-out: pIC50 (converted)
Plasmodium falciparum = assay: Calibr Malaria Delayed Death Assay SOP; assay type: functional, organism-based; details: for IC50: Plasmodium falciparum

SMILES: Cn1ncc2c1C(COCC1CC1)CN(Cc1ccsc1)C2 (stereo not drawn)
- IC50 [1]: > 30.2 µM
- IC50 [2]: > 50.1 µM

SMILES: COc1c(C(=O)NCc2cnn(C)c2C)nnn1Cc1ccccc1
- IC50 [1]: > 30.2 µM
- IC50 [3]: > 50.1 µM

SMILES: CCn1nc(C)c(NC(=O)c2nnn(Cc3ccccc3)c2OC)c1C
- IC50 [1]: > 30.2 µM
- IC50 [3]: > 50.1 µM

SMILES: CCOCCCNC(=O)c1nnn(Cc2ccccc2)c1OC
- IC50 [1]: > 30.2 µM
- IC50 [3]: > 50.1 µM

SMILES: COc1c(C(=O)NCC2CCCO2)nnn1Cc1ccccc1 (stereo not drawn)
- IC50 [1]: > 30.2 µM
- IC50 [3]: > 50.1 µM

SMILES: COc1c(C(=O)NCc2cccnc2)nnn1Cc1ccccc1
- IC50 [1]: > 30.2 µM
- IC50 [3]: > 50.1 µM

SMILES: CC(C)N1CCCC(c2cc(C(F)(F)F)nc3nccn23)C1 (stereo not drawn)
- IC50 [1]: > 30.2 µM
- IC50 (ClpP1P2): > 100 µM

SMILES: FC(F)(F)c1cc(C2CCN(c3cnccn3)CC2)n2ccnc2n1
- IC50 [1]: > 30.2 µM
- IC50 (ClpP1P2): > 100 µM

SMILES: FC(F)(F)c1cc(C2CCCN(c3cnccn3)C2)n2ccnc2n1 (stereo not drawn)
- IC50 [1]: > 30.2 µM
- IC50 (ClpP1P2): > 100 µM

SMILES: O=C1Nc2ccccc2CN(C/C=C/c2ccccc2)C12CCNC2 (stereo not drawn)
- IC50 [1]: > 30.2 µM
- pIC50 [3]: 4.701
- IC50 [3]: 15 µM

SMILES: O=C1Nc2ccccc2CN(CC2CCCC2)C12CCNC2 (stereo not drawn)
- IC50 [1]: > 30.2 µM
- IC50 [2]: > 50.1 µM
- IC50 [4]: 22.7 µM

SMILES: COc1ccc(C(C)NCc2ccsc2)cc1Cn1cccn1 (stereo not drawn)
- IC50 [1]: > 30.2 µM
- pIC50 (Plasmodium falciparum): 6.257
- IC50 (Plasmodium falciparum): 477 nM

SMILES: O=C(NCCc1nncn1C1CC1)c1cc2ccccn2c1
- IC50 [1]: > 30.2 µM
- IC50 (ClpP1P2): > 100 µM

SMILES: COc1cc(C)sc1C(=O)N1CCC(Nc2cccnc2)CC1
- IC50 [1]: > 30.2 µM
- IC50 [2]: > 50.1 µM
- IC50 [4]: > 50.1 µM

SMILES: Cc1nccc(N2C[C@@H](CN3CCCC3)[C@@H](CO)C2)n1
- IC50 [1]: > 30.2 µM

SMILES: COCc1cc(N2CCN(C3CCCCC3)CC2)n2nccc2n1
- IC50 [1]: > 30.2 µM

SMILES: CCc1cc(N2CCC(N3CCSCC3)CC2)n2nccc2n1
- IC50 [1]: > 30.2 µM

SMILES: CN1CCCN(C[C@@H]2CN(c3nc(C(N)=O)cs3)C[C@@H]2CO)CC1
- IC50 [1]: > 30.2 µM

SMILES: CCc1cc(N2CCN3CCCCC3C2)n2nccc2n1 (stereo not drawn)
- IC50 [1]: > 30.2 µM

SMILES: Cc1nc(CC(=O)NCc2csc(N3CCCC3)n2)cs1
- IC50 [1]: > 30.2 µM

SMILES: NC(=O)c1csc(N2C[C@@H](CN3CCC(O)CC3)[C@@H](CO)C2)n1
- IC50 [1]: > 30.2 µM

SMILES: FC(F)(F)CCc1ccnc(NCc2csc(N3CCOCC3)n2)n1
- IC50 [1]: > 30.2 µM

SMILES: Nc1nccc(N2C[C@@H](CN3CCCCC3)[C@@H](CO)C2)n1
- IC50 [1]: > 30.2 µM

SMILES: Cc1cc(C(=O)N2CC[C@](C)(O)[C@H](C)C2)c(C)n1C
- IC50 [1]: > 30.2 µM

SMILES: CCOc1cccc(C2CC(=O)NCc3nc(N4CCCC4)sc32)c1 (stereo not drawn)
- IC50 [1]: > 30.2 µM

SMILES: CCC(C(=O)NCc1csc(N2CCOCC2)n1)n1cccn1 (stereo not drawn)
- IC50 [1]: > 30.2 µM

SMILES: CCn1ncnc1C1CC(=O)NCc2nc(N3CCOCC3)sc21 (stereo not drawn)
- IC50 [1]: > 30.2 µM

SMILES: CNc1ncc(CN(C)C(=O)c2cccc(-n3cccn3)c2)cn1
- IC50 [1]: > 30.2 µM

SMILES: NC(=O)c1csc(N2C[C@@H](CN3CCCCC3)[C@@H](CO)C2)n1
- IC50 [1]: > 30.2 µM

SMILES: CCc1cc(N2CC(N3CCCCC3C)C2)n2nccc2n1 (stereo not drawn)
- IC50 [1]: > 30.2 µM

SMILES: CCn1ncnc1C1CC(=O)NCc2nc(N3CCCC3)sc21 (stereo not drawn)
- IC50 [1]: > 30.2 µM

SMILES: Cc1ncsc1CCC(=O)NCc1csc(N2CCCC2)n1
- IC50 [1]: > 30.2 µM

SMILES: CC(C)n1cnnc1CCNCc1cn(CCC(N)=O)c2ccccc12
- IC50 [1]: > 30.2 µM

SMILES: CC(=O)N[C@@H]1CN(c2nc(C(N)=O)cs2)C[C@H]1c1ccc(C)o1
- IC50 [1]: > 30.2 µM

SMILES: NC(=O)c1csc(N2C[C@@H](CN3CCOCC3)[C@@H](CO)C2)n1
- IC50 [1]: > 30.2 µM

SMILES: Cc1nn(C)c(C)c1CCC(=O)NCc1csc(N2CCCC2)n1
- IC50 [1]: > 30.2 µM

SMILES: CSc1nccc(N2C[C@@H](CN3CCCCC3)[C@@H](CO)C2)n1
- IC50 [1]: > 30.2 µM

SMILES: COc1cc(C)sc1C(=O)N1CC(c2cccnc2)C1
- IC50 [1]: > 30.2 µM

SMILES: CCn1cnnc1C1CCN(C(=O)c2cc(C)n(CC)c2C)CC1
- IC50 [1]: > 30.2 µM

SMILES: Cc1oc(C)c(C(=O)NCc2cccnc2)c1C
- IC50 [1]: > 30.2 µM

SMILES: Cc1cnn(CC2CCCN2C(=O)c2cccc(-n3ccc(C)n3)c2)c1 (stereo not drawn)
- IC50 [1]: > 30.2 µM

SMILES: CC(C)n1cnnc1C1CCCN(C(=O)COCc2ccccc2)C1 (stereo not drawn)
- IC50 [1]: > 30.2 µM

SMILES: CN1CC2(CCN(Cc3ccoc3)CC2)COc2ccccc2S1(=O)=O.O=C(O)C(F)(F)F
- IC50 [1]: > 30.2 µM
- pIC50 (Plasmodium falciparum): 5.92
- IC50 (Plasmodium falciparum): 906 nM

Reference: ChEMBL document CHEMBL3988442, “University of Dundee, Small-Polar-MMV Screening Library” (2021)
